Experimental data published in ChEMBL document CHEMBL1201862, “PubChem BioAssay data set” (2004).
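Test compounds were applied to cells in 96-well plates for 48 hours at 5 doses. At the GI50, growth is halved.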 The source made the active and inactive calls. Rule as the data show it: active = GI50 up to about 1.1 µM and inactive = higher.

Assays:
Assay in all cases: NCI tumour cell line growth inhibition, 48 h
[1] = test system: SK-MEL-5
[2] = test system: OVCAR-8
[3] = test system: SK-MEL-2
[4] = test system: UACC-257
[5] = test system: SF-539
[6] = test system: MDA-N
[7] = test system: SN12C
[8] = test system: IGROV-1
[9] = test system: HL-60
[10] = test system: NCI-H226
[11] = test system: HT-29
[12] = test system: NCI-H522
[13] = test system: SK-OV-3
[14] = test system: K562
[15] = test system: NCI/ADR-RES
[16] = test system: Malme-3M
[17] = test system: RPMI-8226
[18] = test system: U-251
[19] = test system: HOP-62
[20] = test system: A498

Row | Structure (SMILES) | GI50 [1] | GI50 [2] | GI50 [3] | GI50 [4] | GI50 [5] | GI50 [6] | GI50 [7] | GI50 [8] | GI50 [9] | GI50 [10] | GI50 [11] | GI50 [12] | GI50 [13] | GI50 [14] | GI50 [15] | GI50 [16] | GI50 [17] | GI50 [18] | GI50 [19] | GI50 [20]
1 | O=[N+]([O-])c1cccc(-c2ncc3c(n2)-c2ccccc2C3)c1 | > 100 µM (inactive) | > 100 µM (inactive) | > 100 µM (inactive) | > 100 µM (inactive) | > 100 µM (inactive) | > 100 µM (inactive) | > 100 µM (inactive) | 53.2 µM (inactive) | > 100 µM (inactive) | > 100 µM (inactive) | > 100 µM (inactive) | 24.7 µM (inactive) | > 100 µM (inactive) | > 100 µM (inactive) | > 100 µM (inactive) | > 100 µM (inactive) | > 100 µM (inactive) | 93.8 µM (inactive) |  | 
2 | Nc1nc(Cl)cc(NCC2(CO)CCC2)n1 | > 100 µM (inactive) | > 100 µM (inactive) | > 100 µM (inactive) | > 10 µM (inactive) | > 100 µM (inactive) | > 100 µM (inactive) | > 100 µM (inactive) | > 100 µM (inactive) | > 100 µM (inactive) | > 100 µM (inactive) | > 100 µM (inactive) | > 100 µM (inactive) | > 100 µM (inactive) | > 100 µM (inactive) | > 100 µM (inactive) | > 100 µM (inactive) | > 100 µM (inactive) | > 100 µM (inactive) | > 100 µM (inactive) | 
3 | O=C(O)c1ccc(Nc2cnc3ccc(C(F)(F)F)cc3n2)cc1 | 16.9 µM (inactive) | 17.1 µM (inactive) | 13.2 µM (inactive) | 32.7 µM (inactive) | 23.9 µM (inactive) | 17 µM (inactive) | 25.5 µM (inactive) | 12.4 µM (inactive) | 5.4 µM (inactive) | 14.2 µM (inactive) | 17.1 µM (inactive) |  | 33.5 µM (inactive) | 20.9 µM (inactive) | 32.7 µM (inactive) | 32.4 µM (inactive) | 18.1 µM (inactive) | 24.7 µM (inactive) | 16.1 µM (inactive) | 23.8 µM (inactive)
4 | CC(=O)O[C@H]1C(=O)[C@@]2(C)[C@H]([C@H](OC(=O)c3cccc(C(F)(F)F)c3)[C@]3(O)C[C@H](OC(=O)[C@H](O)[C@@H](NC(=O)c4ccccc4)c4ccccc4)C(C)=C1C3(C)C)[C@]1(OC(C)=O)CO[C@@H]1C[C@@H]2O | < 0.0025 µM (active) | 0.00252 µM (active) |  | 0.108 µM (active) | < 0.0025 µM (active) | < 0.0025 µM (active) | 0.00603 µM (active) | 0.00703 µM (active) | < 0.0025 µM (active) | 0.00946 µM (active) | < 0.0025 µM (active) | < 0.0025 µM (active) | 0.0288 µM (active) | < 0.0025 µM (active) | 1.4 µM (inactive) | 0.00318 µM (active) | < 0.0025 µM (active) | < 0.0025 µM (active) | 0.0162 µM (active) | 0.131 µM (active)
5 | OCCSCCCSCCO | > 100 µM (inactive) | > 100 µM (inactive) |  | > 100 µM (inactive) | > 100 µM (inactive) | > 100 µM (inactive) | > 100 µM (inactive) | > 100 µM (inactive) | 30.7 µM (inactive) |  | > 100 µM (inactive) | > 100 µM (inactive) | > 100 µM (inactive) | > 100 µM (inactive) | > 100 µM (inactive) |  |  | > 100 µM (inactive) | > 100 µM (inactive) | 
6 | CC(=O)CC1CCC(=O)CCC(=O)OC(CC(C)=O)CCC(=O)CCC(=O)O1 (configuration not stated) | > 100 µM (inactive) | > 100 µM (inactive) |  | > 100 µM (inactive) | > 100 µM (inactive) | > 100 µM (inactive) | > 100 µM (inactive) | > 100 µM (inactive) | > 100 µM (inactive) | > 100 µM (inactive) | > 100 µM (inactive) | > 100 µM (inactive) | > 100 µM (inactive) | > 100 µM (inactive) | > 100 µM (inactive) | > 100 µM (inactive) | > 100 µM (inactive) | > 100 µM (inactive) | > 100 µM (inactive) | 
7 | C/C(=N\NC(N)=S)c1ccccn1.OB(O)c1ccccc1 | 4.63 µM (inactive) | 3.63 µM (inactive) |  | 4.47 µM (inactive) | 3.6 µM (inactive) | 7.53 µM (inactive) | 3.52 µM (inactive) | 4.46 µM (inactive) | 1.1 µM (active) | 6.12 µM (inactive) | 6.47 µM (inactive) | 1.8 µM (inactive) | 5.57 µM (inactive) | 3.61 µM (inactive) | 3.7 µM (inactive) | 8.63 µM (inactive) | 5.87 µM (inactive) | 3.28 µM (inactive) | 5.5 µM (inactive) | 5.89 µM (inactive)
